From US10392391B2 (Vertex Pharmaceuticals Incorporated, priority 2012, dated 2019) come the findings set out here.

Read-outs that look alike come from different tables or passages of the source.

For the experiment, the target named is ATR kinase (full-length ATR) (Homo sapiens (Human), UniProt Q13535). Description: ATR inhibition assay (radioactive-phosphate incorporation). Format: biochemical. The method, boiled down:
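Radiometric 33P incorporation by 5 nM full-length ATR into 800 μM target peptide with 10 μM [γ-33P]ATP, in 50 mM Tris/HCl pH 7.5, 10 mM MgCl2, 1 mM DTT, 7% DMSO, 25° C. Compound pre-incubated 10 minutes; reaction stopped after 24 hours, captured on phosphocellulose. Ki(app) from non-linear regression of initial rates.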

The mark [1] stands for this setting: Ki(app), 5 nM full-length ATR, 10 μM ATP, 25° C.

Chain of ATR kinase (full-length ATR) (Q13535 whole entry): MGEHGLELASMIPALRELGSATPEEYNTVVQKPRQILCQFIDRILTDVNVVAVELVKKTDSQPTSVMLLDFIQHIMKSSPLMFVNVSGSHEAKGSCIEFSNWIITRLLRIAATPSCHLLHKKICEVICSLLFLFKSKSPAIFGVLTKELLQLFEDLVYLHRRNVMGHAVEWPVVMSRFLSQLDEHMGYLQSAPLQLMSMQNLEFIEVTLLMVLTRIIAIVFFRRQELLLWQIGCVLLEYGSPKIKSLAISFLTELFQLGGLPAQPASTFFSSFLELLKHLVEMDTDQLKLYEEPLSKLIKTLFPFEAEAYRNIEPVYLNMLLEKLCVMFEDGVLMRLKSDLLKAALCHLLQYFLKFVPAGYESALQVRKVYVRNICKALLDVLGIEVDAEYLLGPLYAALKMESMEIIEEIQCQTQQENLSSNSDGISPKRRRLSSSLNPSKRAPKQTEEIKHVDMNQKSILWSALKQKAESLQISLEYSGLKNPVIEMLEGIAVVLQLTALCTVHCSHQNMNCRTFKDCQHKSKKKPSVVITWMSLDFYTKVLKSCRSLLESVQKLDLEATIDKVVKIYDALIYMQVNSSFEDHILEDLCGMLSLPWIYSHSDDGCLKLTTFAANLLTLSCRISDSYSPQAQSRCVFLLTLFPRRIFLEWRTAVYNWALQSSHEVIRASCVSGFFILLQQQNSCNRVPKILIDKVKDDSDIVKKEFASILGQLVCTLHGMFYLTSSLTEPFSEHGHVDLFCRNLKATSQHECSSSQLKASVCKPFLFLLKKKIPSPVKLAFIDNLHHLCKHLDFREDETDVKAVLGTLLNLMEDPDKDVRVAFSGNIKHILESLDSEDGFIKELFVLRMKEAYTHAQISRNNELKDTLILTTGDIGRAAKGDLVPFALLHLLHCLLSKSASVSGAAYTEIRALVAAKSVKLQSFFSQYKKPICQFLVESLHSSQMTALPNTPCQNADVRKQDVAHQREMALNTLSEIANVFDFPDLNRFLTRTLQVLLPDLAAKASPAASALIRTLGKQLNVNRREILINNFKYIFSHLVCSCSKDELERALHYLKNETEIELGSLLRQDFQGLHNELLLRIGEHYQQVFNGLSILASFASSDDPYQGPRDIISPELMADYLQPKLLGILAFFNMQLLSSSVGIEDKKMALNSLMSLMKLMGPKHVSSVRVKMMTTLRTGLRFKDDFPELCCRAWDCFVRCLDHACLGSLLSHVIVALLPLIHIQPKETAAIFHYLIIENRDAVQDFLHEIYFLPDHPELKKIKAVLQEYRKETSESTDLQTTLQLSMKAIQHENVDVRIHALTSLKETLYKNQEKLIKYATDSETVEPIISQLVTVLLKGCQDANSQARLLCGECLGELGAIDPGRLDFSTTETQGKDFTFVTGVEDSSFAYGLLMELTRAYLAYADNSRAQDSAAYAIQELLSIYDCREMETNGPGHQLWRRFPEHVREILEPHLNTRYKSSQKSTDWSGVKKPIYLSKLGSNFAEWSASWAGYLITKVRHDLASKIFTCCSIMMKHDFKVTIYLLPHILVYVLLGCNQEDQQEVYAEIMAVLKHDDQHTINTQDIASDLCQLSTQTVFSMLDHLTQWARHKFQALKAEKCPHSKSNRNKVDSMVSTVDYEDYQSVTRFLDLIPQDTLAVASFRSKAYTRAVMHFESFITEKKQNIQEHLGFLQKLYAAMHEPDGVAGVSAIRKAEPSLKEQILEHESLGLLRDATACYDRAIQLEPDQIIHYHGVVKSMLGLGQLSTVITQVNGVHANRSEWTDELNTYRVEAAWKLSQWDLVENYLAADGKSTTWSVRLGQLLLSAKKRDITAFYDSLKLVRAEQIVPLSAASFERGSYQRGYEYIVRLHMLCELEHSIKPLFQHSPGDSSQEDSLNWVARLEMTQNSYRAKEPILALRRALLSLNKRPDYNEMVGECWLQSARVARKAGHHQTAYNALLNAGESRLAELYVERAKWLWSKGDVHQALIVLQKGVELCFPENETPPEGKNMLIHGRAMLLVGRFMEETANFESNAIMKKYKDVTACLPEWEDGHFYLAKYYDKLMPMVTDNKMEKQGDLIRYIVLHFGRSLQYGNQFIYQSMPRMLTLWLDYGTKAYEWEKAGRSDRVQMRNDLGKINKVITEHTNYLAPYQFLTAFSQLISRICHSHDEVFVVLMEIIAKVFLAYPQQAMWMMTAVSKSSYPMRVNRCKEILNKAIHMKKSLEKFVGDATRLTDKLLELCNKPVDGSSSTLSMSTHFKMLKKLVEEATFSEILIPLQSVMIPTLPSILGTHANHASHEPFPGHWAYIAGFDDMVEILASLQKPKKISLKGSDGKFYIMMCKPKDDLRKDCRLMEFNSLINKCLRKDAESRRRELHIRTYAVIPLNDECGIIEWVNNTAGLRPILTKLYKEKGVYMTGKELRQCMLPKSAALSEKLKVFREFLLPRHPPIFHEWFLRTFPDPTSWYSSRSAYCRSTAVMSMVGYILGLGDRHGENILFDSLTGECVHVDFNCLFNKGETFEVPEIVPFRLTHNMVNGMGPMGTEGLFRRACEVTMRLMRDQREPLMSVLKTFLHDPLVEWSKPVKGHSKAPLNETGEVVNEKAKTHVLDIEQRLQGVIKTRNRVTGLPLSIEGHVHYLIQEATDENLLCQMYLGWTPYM

As to `N#CCc1cnc2c(C(=O)Nc3cnccc3-c3ccccc3)c(N)nn2c1` [I-C-6, 2-amino-6-(cyanomethyl)-N-(4-phenylpyridin-3-yl)pyrazolo[1,5-a]pyrimidine-3-carboxamide], the Ki under setting [1] lay within 10 to 1000 nM.

For `Nc1nn2cc(Cl)cnc2c1C(=O)Nc1cnccc1O[C@H]1CCOC1` [I-O-58, (S)-2-amino-6-chloro-N-(4-((tetrahydrofuran-3-yl)oxy)pyridin-3-yl)pyrazolo[1,5-a]pyrimidine-3-carboxamide], the Ki under setting [1] lay in the range of 10 to 1000 nM.

On to `Nc1nn2cc(F)cnc2c1C(=O)Nc1cncc(F)c1N1CCC2(CC1)COC2` [I-N-239, 2-amino-6-fluoro-N-(5-fluoro-4-(2-oxa-7-azaspiro[3.5]nonan-7-yl)pyridin-3-yl)pyrazolo[1,5-a]pyrimidine-3-carboxamide], for which, under setting [1], the Ki is 10 to 1000 nM.

Regarding `CN1CCN(C(=O)C2CCN(c3c(F)cncc3NC(=O)c3c(N)nn4cc(F)cnc34)CC2)CC12CC2` [I-G-38, 2-amino-6-fluoro-N-(5-fluoro-4-(4-(4-methyl-4,7-diazaspiro[2.5]octane-7-carbonyl)piperidin-1-yl)pyridin-3-yl)pyrazolo[1,5-a]pyrimidine-3-carboxamide], the Ki under setting [1] lay in the range of 10 to 1000 nM.

For the compound `CC(C)N1CCCC1C(=O)N1CCN(c2c(F)cncc2NC(=O)c2c(N)nn3cc(F)cnc23)CC1` (centres unmarked) [I-N-205, 2-amino-6-fluoro-N-(5-fluoro-4-(4-(1-isopropylpyrrolidine-2-carbonyl)piperazin-1-yl)pyridin-3-yl)pyrazolo[1,5-a]pyrimidine-3-carboxamide], under setting [1], the Ki lay within 10 to 1000 nM.

With `Nc1nn2cc(F)cnc2c1C(=O)Nc1cnccc1N1CCN2[C@@H](CCS2(=O)=O)C1` [I-N-247, (S)-2-amino-N-(4-(1,1-dioxidotetrahydro-2H-isothiazolo[2,3-a]pyrazin-5(3H)-yl)pyridin-3-yl)-6-fluoropyrazolo[1,5-a]pyrimidine-3-carboxamide], the Ki under setting [1] was 10 to 1000 nM.

Take `N#CCc1cnc2c(C(=O)Nc3cnccc3OCCCO)c(N)nn2c1` [I-O-40, 2-amino-6-(cyanomethyl)-N-(4-(3-hydroxypropoxy)pyridin-3-yl)pyrazolo[1,5-a]pyrimidine-3-carboxamide]: the Ki under setting [1] is below 10 nM.

On to `CN1CC[C@H](Oc2ccncc2NC(=O)c2c(N)nn3cc(Cl)cnc23)C1` [I-O-69, (S)-2-amino-6-chloro-N-(4-((1-methylpyrrolidin-3-yl)oxy)pyridin-3-yl)pyrazolo[1,5-a]pyrimidine-3-carboxamide], for which, under setting [1], the Ki was 10 to 1000 nM.

On to `Nc1nn2cc(Cl)cnc2c1C(=O)Nc1cnccc1N1CCn2cncc2C1` [I-N-75, 2-amino-6-chloro-N-(4-(5,6-dihydroimidazo[1,5-a]pyrazin-7(8H)-yl)pyridin-3-yl)pyrazolo[1,5-a]pyrimidine-3-carboxamide], for which the Ki under setting [1] is 10 to 1000 nM.

As to `COc1ccncc1NC(=O)c1c(N)nn2cc(C(C)C#N)cnc12` (centres unmarked) [I-O-21, 2-amino-6-(1-cyanoethyl)-N-(4-methoxypyridin-3-yl)pyrazolo[1,5-a]pyrimidine-3-carboxamide], under setting [1], the Ki is 10 to 1000 nM.

In the case of `Nc1nn2cc(F)cnc2c1C(=O)Nc1cnccc1-n1ccnc1C(F)(F)F` [I-N-219, 2-amino-6-fluoro-N-(4-(2-(trifluoromethyl)-1H-imidazol-1-yl)pyridin-3-yl)pyrazolo[1,5-a]pyrimidine-3-carboxamide], under setting [1], the Ki lay in the range of 10 to 1000 nM.

On to `CN(C)C(=O)C1CCCN(c2ccncc2NC(=O)c2c(N)nn3cc(F)cnc23)C1` (centres unmarked) [I-N-290, 2-amino-N-(4-(3-(dimethylcarbamoyl)piperidin-1-yl)pyridin-3-yl)-6-fluoropyrazolo[1,5-a]pyrimidine-3-carboxamide], for which the Ki under setting [1] was in the range of 10 to 1000 nM.

In the case of `Nc1nn2cc(Cl)cnc2c1C(=O)Nc1cnccc1O[C@H]1C[C@]2(CCN2)C1` [I-O-78, N-(4-((4s,6r)-1-azaspiro[3.3]heptan-6-yloxy)pyridin-3-yl)-2-amino-6-chloropyrazolo[1,5-a]pyrimidine-3-carboxamide], the Ki under setting [1] was 10 to 1000 nM.

As to `COC(=O)C1CCN(c2ccncc2NC(=O)c2c(N)nn3cc(Cl)cnc23)CC1` [I-N-74, methyl-1-(3-(2-amino-6-chloropyrazolo[1,5-a]pyrimidine-3-carboxamido)pyridin-4-yl)piperidine-4-carboxylate], the Ki under setting [1] lay within 10 to 1000 nM.

On to `CN1CCN(c2ccncc2NC(=O)c2c(N)nn3cc(F)cnc23)CC1` [I-N-3, 2-amino-6-fluoro-N-(4-(4-methylpiperazin-1-yl)pyridin-3-yl)pyrazolo[1,5-a]pyrimidine-3-carboxamide], for which the Ki under setting [1] lay in the range of 10 to 1000 nM.

For the compound `CN1CCN(c2c(F)cncc2NC(=O)c2c(N)nn3cc(CC#N)cnc23)CC1` [I-N-80, 2-amino-6-(cyanomethyl)-N-(5-fluoro-4-(4-methylpiperazin-1-yl)pyridin-3-yl)pyrazolo[1,5-a]pyrimidine-3-carboxamide], the Ki under setting [1] lay in the range of 10 to 1000 nM.

For `CN(C)CCCNC(=O)C1CCN(c2c(F)cncc2NC(=O)c2c(N)nn3cc(F)cnc23)CC1` [I-G-26, 2-amino-N-(4-(4-((3-(dimethylamino)propyl)carbamoyl)piperidin-1-yl)-5-fluoropyridin-3-yl)-6-fluoropyrazolo[1,5-a]pyrimidine-3-carboxamide], the Ki under setting [1] was 10 to 1000 nM.

On to `Nc1nn2cc(F)cnc2c1C(=O)Nc1cnccc1N1CCN(C2CC2)CC1` [I-N-33, 2-amino-N-(4-(4-cyclopropylpiperazin-1-yl)pyridin-3-yl)-6-fluoropyrazolo[1,5-a]pyrimidine-3-carboxamide], for which the Ki under setting [1] is 10 to 1000 nM.

Regarding `Nc1nn2cc(F)cnc2c1C(=O)Nc1cnccc1-c1ccc(C(=O)N2CCN(C3COC3)CC2)cc1F` [I-C-51, 2-amino-6-fluoro-N-(4-(2-fluoro-4-(4-(oxetan-3-yl)piperazine-1-carbonyl)phenyl)pyridin-3-yl)pyrazolo[1,5-a]pyrimidine-3-carboxamide], under setting [1], the Ki fell in the range of 10 to 1000 nM.

With `CC1(O)CCN(c2ccncc2NC(=O)c2c(N)nn3cc(Cl)cnc23)CC1` [I-N-66, 2-amino-6-chloro-N-(4-(4-hydroxy-4-methylpiperidin-1-yl)pyridin-3-yl)pyrazolo[1,5-a]pyrimidine-3-carboxamide], the Ki under setting [1] is 10 to 1000 nM.

As for `Nc1nn2cc(F)cnc2c1C(=O)Nc1cnccc1N1CCN2CCOC[C@H]2C1` [I-N-116, (R)-2-amino-6-fluoro-N-(4-(hexahydropyrazino[2,1-c][1,4]oxazin-8(1H)-yl)pyridin-3-yl)pyrazolo[1,5-a]pyrimidine-3-carboxamide], under setting [1], the Ki is 10 to 1000 nM.

For `CN(C)CC1(O)CCN(c2ccncc2NC(=O)c2c(N)nn3cc(Cl)cnc23)CC1` [I-N-36, 2-amino-6-chloro-N-(4-(4-((dimethylamino)methyl)-4-hydroxypiperidin-1-yl)pyridin-3-yl)pyrazolo[1,5-a]pyrimidine-3-carboxamide], the Ki is 1000 to 5000 nM.

As for `Nc1nn2cc(F)cnc2c1C(=O)Nc1cncc(C2CC2)c1N1CCN([C@H]2CCOC2)CC1` [I-N-120, (S)-2-amino-N-(5-cyclopropyl-4-(4-(tetrahydrofuran-3-yl)piperazin-1-yl)pyridin-3-yl)-6-fluoropyrazolo[1,5-a]pyrimidine-3-carboxamide], the Ki under setting [1] was in the range of 10 to 1000 nM.

On to `CC(C#N)c1cnc2c(C(=O)Nc3cnccc3N3CCN(C4COC4)CC3)c(N)nn2c1` (centres unmarked) [I-N-143, 2-amino-6-(1-cyanoethyl)-N-(4-(4-(oxetan-3-yl)piperazin-1-yl)pyridin-3-yl)pyrazolo[1,5-a]pyrimidine-3-carboxamide], for which the Ki under setting [1] lay in the range of 10 to 1000 nM.

On to `CN1CCN(c2ccc(-c3ccncc3NC(=O)c3c(N)nn4cc(F)cnc34)cn2)CC1` [I-C-21, 2-amino-6-fluoro-N-(6-(4-methylpiperazin-1-yl)-[3,4′-bipyridin]-3′-yl)pyrazolo[1,5-a]pyrimidine-3-carboxamide], for which the Ki under setting [1] is 10 to 1000 nM.

Consider `Nc1nn2cc(Cl)cnc2c1C(=O)Nc1cnccc1N1CCN2CCC1CC2` [I-N-56, N-(4-(1,4-diazabicyclo[3.2.2]nonan-4-yl)pyridin-3-yl)-2-amino-6-chloropyrazolo[1,5-a]pyrimidine-3-carboxamide], for which the Ki under setting [1] fell in the range of 10 to 1000 nM.

In the case of `N#CCc1cnc2c(C(=O)Nc3cnccc3OCCO)c(N)nn2c1` [I-O-33, 2-amino-6-(cyanomethyl)-N-(4-(2-hydroxyethoxy)pyridin-3-yl)pyrazolo[1,5-a]pyrimidine-3-carboxamide], the Ki under setting [1] is below 10 nM.

For the compound `Cn1ncnc1-c1ccncc1NC(=O)c1c(N)nn2cc(F)cnc12` [I-C-65, 2-amino-6-fluoro-N-(4-(1-methyl-1H-1,2,4-triazol-5-yl)pyridin-3-yl)pyrazolo[1,5-a]pyrimidine-3-carboxamide], under setting [1], the Ki is 10 to 1000 nM.

Regarding `Nc1nn2cc(F)cnc2c1C(=O)Nc1cncc(F)c1N1CCC(C(=O)N2CC(N3CCCCC3)C2)CC1` [I-G-57, 2-amino-6-fluoro-N-(5-fluoro-4-(4-(3-(piperidin-1-yl)azetidine-1-carbonyl)piperidin-1-yl)pyridin-3-yl)pyrazolo[1,5-a]pyrimidine-3-carboxamide], the Ki under setting [1] lay in the range of 10 to 1000 nM.

For the compound `Nc1nn2cc(F)cnc2c1C(=O)Nc1cncc(F)c1N1CCN2C(=O)OC[C@@H]2C1` [I-N-248, (S)-2-amino-6-fluoro-N-(5-fluoro-4-(3-oxotetrahydro-1H-oxazolo[3,4-a]pyrazin-7(3H)-yl)pyridin-3-yl)pyrazolo[1,5-a]pyrimidine-3-carboxamide], under setting [1], the Ki lay in the range of 10 to 1000 nM.

With `Nc1nn2cc(Cl)cnc2c1C(=O)Nc1cnccc1N1C2CCC1CC(O)C2` (centres unmarked) [I-N-42, 2-amino-6-chloro-N-(4-(3-hydroxy-8-azabicyclo[3.2.1]octan-8-yl)pyridin-3-yl)pyrazolo[1,5-a]pyrimidine-3-carboxamide], under setting [1], the Ki is 10 to 1000 nM.

For the compound `N#CCc1cnc2c(C(=O)Nc3cnccc3N3CCOC(CN)C3)c(N)nn2c1` (centres unmarked) [I-N-90, 2-amino-N-(4-(2-(aminomethyl)morpholino)pyridin-3-yl)-6-(cyanomethyl)pyrazolo[1,5-a]pyrimidine-3-carboxamide], under setting [1], the Ki is 10 to 1000 nM.
